The values that follow come from patent US6399782B1, “Benzimidazole inhibitors of fructose 1,6-bisphosphatase” (Metabasis Therapeutics, Inc., priority 1997, dated 2002).

As usually defined, the IC50 is the concentration needed to halve the response being measured. High values mean a need for much substance, low ones inhibition by little substance. Usually melting point stands for the temperature, or range, at which the solid turns liquid.

SMILES strings stand for the structures. Structures can show the parent of a compound that is named as a salt.

For one data set, the target named is T1, mouse liver FBPase (Mus musculus, UniProt Q9QXD6).
T1 construct: This partially purified fraction was used for enzyme assays; from tissue; host or cells: mouse liver, 45-75% ammonium sulfate fraction
T1 sequence (Q9QXD6 2-338 limits assumed): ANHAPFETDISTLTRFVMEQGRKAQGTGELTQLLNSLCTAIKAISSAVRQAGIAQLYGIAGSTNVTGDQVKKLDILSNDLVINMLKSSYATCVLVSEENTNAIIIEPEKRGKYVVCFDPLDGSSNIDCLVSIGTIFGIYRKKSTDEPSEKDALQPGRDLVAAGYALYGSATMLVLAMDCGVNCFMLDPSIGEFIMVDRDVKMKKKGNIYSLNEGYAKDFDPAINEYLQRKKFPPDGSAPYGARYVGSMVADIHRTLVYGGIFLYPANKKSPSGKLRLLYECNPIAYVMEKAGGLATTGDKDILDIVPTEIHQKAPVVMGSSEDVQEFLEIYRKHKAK
The data set is described as follows: Inhibition of mouse liver FBPase. Format: biochemical. The conditions noted are these: partially purified mouse liver fraction. The procedure: Enzymatic activity was measured spectrophotometrically in reactions that coupled the formation of product (fructose 6-phosphate) to the reduction of dimethylthiazoldiphenyltetrazolium bromide (MTT) via NADP and phenazine methosulfate (PMS), using phosphoglucose isomerase and glucose 6-phosphate dehydrogenase as the coupling enzymes. Reaction mixtures (200 μl) were made up in 96-well microtitre plates, and consisted of 50 mM Tris-HCl, pH 7.4, 100 mM KCl, 5 mM EGTA, 2 mM MgCl2, 0.2 mM NADP, 1 mg/ml BSA, 1 mM MTT, 0.6 mM PMS, 1 unit/mL phosphoglucose isomerase, 2 units/mL glucose 6-phosphate dehydrogenase, and 0.150 mM substrate (fructose 1,6-bisphosphate). Inhibitor concentrations were varied from 0.01 μM to 10 μM.
Mouse liver FBPase was obtained by homogenizing freshly isolated mouse liver in 100 mM Tris-HCl buffer, pH 7.4, containing 1 mM EGTA, and 10% glycerol. […] This fraction was redissolved in the homogenization buffer and desalted on a PD-10 gel filtration column (Biorad) eluted with same. This partially purified fraction was used for enzyme assays. Both rat liver and mouse liver FBPase were assayed as described for human liver FBPase.
`CC(C)(C)Cn1c(-c2ccc(P(=O)(O)O)o2)nc2c(F)cccc21` [Compound 13.25, 4-Fluoro-1-neopentyl-2-(2-phosphonofuranyl)benzimidazole] displayed a half-maximal inhibitory concentration (IC50) above 20 µM.
Still for that read-out and setting: then `Cc1c(Cl)ccc2c1nc(-c1ccc(P(=O)(O)O)o1)n2CC(C)C` [Compound 13.96, 1-Isobutyl-4-methyl-5-chloro-2-(2-phosphono-5-furanyl)benzimidazole], with 0.7 µM; and `Nc1cccc2c1nc(-c1ccc(P(=O)(O)O)o1)n2CCCCl` [Compound 12.35, 4-Amino-1-(3-chloropropyl)-2-[2-(5-phosphono)furanyl]benzimidazole], with above 20 µM.
Same read-out and setting: then `CC(C)(C)Cn1c(-c2ccc(P(=O)(O)O)o2)nc2ccc(Cl)cc21` [Compound 13.56, 6-Chloro-1-neopentyl-2-(2-phosphono-5-furanyl)benzimidazole], with above 20 µM; and `Nc1cccc2c1nc(-c1ccc(P(=O)(O)O)o1)n2Cc1ccoc1` [Compound 12.37, 4-Amino-1-(3-furanylmethyl)-2-[2-(5-phosphono)furanyl]benzimidazole], with 1.27 µM; and `CC(C)Cn1c(-c2ccc(P(=O)(O)O)o2)nc2c(N)c(F)cc(CCCN(C)C)c21` [Compound 12.84, 4-Amino-5-fluoro-7-(3-N,N-dimethylpropylamine)-1-isobutyl-2-(2-phosphono-5-furanyl)benzimidazole hydrobromide salt], with 0.5 µM.

In the next data set the test system is rat hepatocytes. The data set is described as follows: Inhibition of gluconeogenesis in rat hepatocytes. It is filed as cell-based. The following applies: Hepatocyte; glucose production from lactate/pyruvate, isolated rat hepatocytes, 1 hour. As for the experimental part: Hepatocytes were prepared from overnight fasted Sprague-Dawley rats (250-300 g) according to the procedure of Berry and Friend (Berry, M. N., Friend, D. S., 1969, J. Cell. Biol. 43, 506-520) as modified by Groen (Groen, A. K., Sips, H. J., Vervoorn, R. C., Tager, J. M., 1982, Eur. J. Biochem. 122, 87-93). Hepatocytes (75 mg wet weight/mL) were incubated in 1 ml Krebs-bicarbonate buffer containing 10 mM Lactate, 1 mM pyruvate, 1 mg/mL BSA, and test compound concentrations from 1 to 500 μM. Incubations were carried out in a 95% oxygen, 5% carbon dioxide atmosphere in closed, 50-mL Falcon tubes submerged in a rapidly shaking water bath (37° C.). After 1 hour, an aliquot (0.25 mL) was removed, transferred to an Eppendorf tube and centrifuged. 50 μL of supernatant was then assayed for glucose content using a Sigma Glucose Oxidase kit as per the manufacturer's instructions.
`CC(C)Cn1c(-c2ccc(P(=O)(O)O)o2)nc2c(N)c(F)c(Cl)cc21` [Compound 12.63, 4-Amino-5-fluoro-6-chloro-1-isobutyl-2-(2-phosphono-5-furanyl)benzimidazole] displayed an IC50 of 16 µM. That is a double-digit micromolar value.
Still for that read-out and setting: then `CC(C)Cn1c(-c2ccc(P(=O)(O)O)o2)nc2c(N)c(Cl)cc(Cl)c21` [Compound 12.50, 4-Amino-5,7-dichloro-1-isobutyl-2-(2-phosphono-5-furanyl)benzimidazole], with 17 µM; and `CC(C)Cn1c(-c2ccc(P(=O)(O)O)o2)nc2c(N)c(F)cc(Br)c21` [Compound 12.62, 4-Amino-5-fluoro-7-bromo-1-isobutyl-2-(2-phosphono-5-furanyl)benzimidazole], with 5 µM.

Still in this data set, the particulars now being: glucose production from lactate/pyruvate, isolated rat hepatocytes, 1 hour.
In turn, `CC(C)Cn1c(-c2ccc(P(=O)(O)O)o2)nc2c(N)c(Br)ccc21` [Compound 12.44, 4-Amino-5-bromo-1-isobutyl-2-[2-(5-phosphono)furanyl]benzimidazole] yielded an IC50 of 14 µM.
Same read-out and setting: with `CC(C)Cn1c(-c2ccc(P(=O)(OCOC(=O)C(C)(C)C)OCOC(=O)C(C)(C)C)o2)nc2c(N)c(Cl)cc(Cl)c21` [Compound 18.2, 4-Amino-5,7-dichloro-1isobutyl-2-(5-furanyl-2-bispivaloyloxymethylphosphonate)benzimidazole] the figure was 17 µM; with `CC(C)Cn1c(-c2ccc(P(=O)(O)O)o2)nc2c(N)c(Br)cc(Br)c21` [Compound 12.42, 4-Amino-5,7-dibromo-1-isobutyl-2-[2-(5-phosphono)furanyl]benzimidazole], 14 µM.

Tested on in the next data set: not given
Assay: not given
Settings: not given
As for `CC(C)Cn1c(-c2ccc(P(=O)(O)O)o2)nc2c(N)c(F)c(Cl)cc21` [Compound 12.63, 4-Amino-5-fluoro-6-chloro-1-isobutyl-2-(2-phosphono-5-furanyl)benzimidazole], the melting point was 175 to 180 °C.
Still for that read-out and setting: then `CC(C)Cn1c(-c2ccc(P(=O)(O)O)o2)nc2cc(Cl)c(F)cc21` [Compound 13.50, 5-Chloro-6-fluoro-1-isobutyl-2-(2-phosphono-5-furanyl)benzimidazole], with 196 to 199 °C; and `O=P(O)(O)c1ccc(-c2nc3ccccc3[nH]2)o1` [Compound 13.1, 2-(2-Phosphono-5-furanyl)benzimidazole], with above 250 °C; and `CC(C)Cn1c(-c2ccc(P(=O)(O)O)o2)nc2c(N)c(F)cc(CCCN(C)C)c21` (as salt: hydrobromid) [Compound 12.84, 4-Amino-5-fluoro-7-(3-N,N-dimethylpropylamine)-1-isobutyl-2-(2-phosphono-5-furanyl)benzimidazole hydrobromide salt], with 208 to 212 °C (dec.).
Same read-out and setting: then `CC(C)Cn1c(-c2ccc(P(=O)(O)O)o2)nc2c(N)c(O)ccc21` [Compound 11.1, 4-Amino-5-hydroxy-1-isobutyl-2-(2-phosphono-5-furanyl)benzimidazole], with 206 to 209 °C; and `Cc1cccc2c1nc(-c1ccc(P(=O)(O)O)o1)n2CC(C)C` [Compound 13.54, 4-Methyl-1-isobutyl-2-(2-phosphono-5-furanyl)benzimidazole], with 208 to 211 °C.
Regarding `CC(C)Cn1c(-c2ccc(P(=O)(O)O)o2)nc2c(N)c(Cl)cc(Cl)c21` [Compound 12.50, 4-Amino-5,7-dichloro-1-isobutyl-2-(2-phosphono-5-furanyl)benzimidazole], the melting point was 205 to 207 °C.
The same measure, in the same setting: with `CCc1cc(F)c(N)c2c1nc(-c1ccc(P(=O)(O)O)o1)n2CC(C)C` [Compound 12.65, 7-Amino-4-ethyl-6-fluoro-1-isobutyl-2-(2-phosphono-5-furanyl)benzimidazole] the figure was 249 to 250 °C; with `CCCc1ccc2c(nc(-c3ccc(P(=O)(O)O)o3)n2CC(C)C)c1N` [Compound 12.60, 4-Amino-5-propyl-1-isobutyl-2-(2-phosphono-5-furanyl)benzimidazole], 207 to 210 °C.
With `CC(C)Cn1c(-c2ccc(P(=O)(O)O)o2)nc2cc(F)c([N+](=O)[O-])c(Br)c21` [Compound 13.68, 1-Isobutyl-5-fluoro-6-nitro-7-bromo-2-(2-phosphono-5-furanyl)benzimidazole], the melting point was in the range of 161 to 165 °C.
On the same count and under the same terms, then `CC(C)Cn1c(-c2ccc(P(=O)(O)O)o2)nc2cc(Cl)c(Cl)cc21` [Compound 13.44, 5,6-Dichloro-1-isobutyl-2-(2-phosphono-5-furanyl)benzimidazole], with 225 to 227 °C.
Compound `Cc1c(Cl)cc2c(nc(-c3ccc(P(=O)(O)O)o3)n2CCCCBr)c1C` [Compound 13.90, 1-(4-Bromobutyl)-4,5-dimethyl-6-chloro-2-(2-phosphono-5-furanyl)benzimidazole] came in with a melting point of 212 to 216 °C.
Same read-out and setting: with `COc1cccc(-c2cc(F)c(N)c3nc(-c4ccc(P(=O)(O)O)o4)n(CC(C)C)c23)c1` [Compound 12.74, 4-Amino-7-m-methoxyphenyl-5-fluoro-1-isobutyl-2-(2-phosphono-5-furanyl)benzimidazole] the figure was 208 to 212 °C (dec.); with `COc1ccc2c(nc(-c3ccc(P(=O)(O)O)o3)n2CC(C)C)c1N` [Compound 12.55, 4-Amino-5-methoxy-1-isobutyl-2-(2-phosphono-5-furanyl)benzimidazole], 212 to 213 °C; with `Cc1cc(C)c2nc(-c3ccc(P(=O)(O)O)o3)n(CC(C)C)c2c1` (hydrate or solvate) [Compound 13.85, 1-Isobutyl-4,6-dimethyl-2-(2-phosphono-5-furanyl)benzimidazole], 209 to 212 °C.
Same read-out and setting: then `CCC(CC)Cn1c(-c2ccc(P(=O)(O)O)o2)nc2c(N)c(F)ccc21` [Compound 12.73, 4-Amino-5-fluoro-1-(2-ethylbutyl)-2-(2-phosphono-5-furanyl)benzimidazole], with 178 to 182 °C (dec.); and `CCC(CC)n1c(-c2ccc(P(=O)(O)O)o2)nc2c(N)c(F)ccc21` [Compound 12.76, 4-Amino-5-fluoro-1-(3-pentyl)-2-(2-phosphono-5-furanyl)benzimidazole], with 180 to 185 °C (dec.).
`CC(C)Cn1c(-c2ccc(P(=O)(O)O)o2)nc2c(N)c(F)cc(Br)c21` [Compound 12.62, 4-Amino-5-fluoro-7-bromo-1-isobutyl-2-(2-phosphono-5-furanyl)benzimidazole] yielded a melting point of 195 to 200 °C.
The same measure, in the same setting: with `CC(C)n1c(-c2ccc(P(=O)(O)O)o2)nc2cc(Cl)ccc21` [Compound 13.33, 5-Chloro-1-isopropyl-2-(2-phosphono-5-furanyl)benzimidazole] the figure was 192 to 195 °C.
For the compound `CC(=O)Nc1c(F)cc2nc(-c3ccc(P(=O)(O)O)o3)n(CC(C)C)c2c1Br` [Compound 13.76, 1-Isobutyl-5-fluoro-6-acetamido-7-bromo-2-(2-phosphono-5-furanyl)benzimidazole], the melting point was 217 to 221 °C (dec.).
`CC(C)Cn1c(-c2ccc(P(=O)(O)O)o2)nc2c(N)c(F)cc(C3CC3)c21` [Compound 12.66, 4-Amino-7-cyclopropyl-5-fluoro-1-isobutyl-2-(2-phosphono-5-furanyl)benzimidazole]: the melting point is 250 to 255 °C (dec.).
